Source: ChEMBL document CHEMBL3046010, “Synthesis and pharmacological evaluation of 4-[2-hydroxy-3-(4-phenyl-piperazin-1-yl)-propoxy]-4-azatricyclo[5.2.1.02,6]dec-8-ene-3,5-dione” (Med Chem Res, 2008)

Key:
Assay type in all cases: tissue-based
[1] = target: 5-hydroxytryptamine receptor 2A (Rattus norvegicus, UniProt P14842); experiment: Displacement of [3H]Ketanserin from 5HT2A receptor in Rattus norvegicus (rat) cerebral cortex by filter binding assay
[2] = target: T1, 5-hydroxytryptamine receptor 1A (Rattus norvegicus, UniProt P19327); experiment: Displacement of [3H]8-OH-DPAT from 5HT1A receptor in Rattus norvegicus (rat) cerebral cortex after 15 min by filter binding assay
T1 sequence (P19327 whole entry): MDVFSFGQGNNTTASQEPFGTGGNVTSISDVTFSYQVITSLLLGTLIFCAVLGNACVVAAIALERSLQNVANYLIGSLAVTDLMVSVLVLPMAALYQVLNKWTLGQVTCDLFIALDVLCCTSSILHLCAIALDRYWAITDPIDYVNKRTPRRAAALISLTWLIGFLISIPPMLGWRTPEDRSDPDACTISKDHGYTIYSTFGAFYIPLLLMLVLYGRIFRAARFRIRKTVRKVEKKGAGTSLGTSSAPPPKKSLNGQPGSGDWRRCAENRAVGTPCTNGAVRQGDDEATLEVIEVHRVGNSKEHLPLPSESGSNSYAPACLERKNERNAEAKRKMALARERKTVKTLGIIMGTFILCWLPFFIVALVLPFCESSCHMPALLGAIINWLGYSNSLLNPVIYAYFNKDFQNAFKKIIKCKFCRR

[3] = target: Beta-1 adrenergic receptor (Rattus norvegicus, UniProt P18090); experiment: Displacement of [3H]CGP12177 from beta1 adrenoreceptor in Rattus norvegicus (rat) cerebral cortex by liquid scintillation counting
Beta-1 adrenergic receptor, sequence (P18090 whole entry): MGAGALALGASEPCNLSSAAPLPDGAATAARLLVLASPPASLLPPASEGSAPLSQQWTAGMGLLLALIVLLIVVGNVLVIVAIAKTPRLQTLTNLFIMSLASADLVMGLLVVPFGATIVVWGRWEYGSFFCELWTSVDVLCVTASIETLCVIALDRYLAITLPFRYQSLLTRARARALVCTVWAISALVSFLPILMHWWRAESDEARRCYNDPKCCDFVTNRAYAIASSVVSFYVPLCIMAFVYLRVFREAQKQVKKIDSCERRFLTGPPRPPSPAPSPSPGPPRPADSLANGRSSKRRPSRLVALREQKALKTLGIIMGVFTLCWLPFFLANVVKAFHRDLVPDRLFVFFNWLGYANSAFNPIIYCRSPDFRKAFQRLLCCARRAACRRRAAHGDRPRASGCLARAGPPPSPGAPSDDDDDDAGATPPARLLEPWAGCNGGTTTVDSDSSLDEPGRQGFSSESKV

5-hydroxytryptamine receptor 2A, sequence (P14842 whole entry): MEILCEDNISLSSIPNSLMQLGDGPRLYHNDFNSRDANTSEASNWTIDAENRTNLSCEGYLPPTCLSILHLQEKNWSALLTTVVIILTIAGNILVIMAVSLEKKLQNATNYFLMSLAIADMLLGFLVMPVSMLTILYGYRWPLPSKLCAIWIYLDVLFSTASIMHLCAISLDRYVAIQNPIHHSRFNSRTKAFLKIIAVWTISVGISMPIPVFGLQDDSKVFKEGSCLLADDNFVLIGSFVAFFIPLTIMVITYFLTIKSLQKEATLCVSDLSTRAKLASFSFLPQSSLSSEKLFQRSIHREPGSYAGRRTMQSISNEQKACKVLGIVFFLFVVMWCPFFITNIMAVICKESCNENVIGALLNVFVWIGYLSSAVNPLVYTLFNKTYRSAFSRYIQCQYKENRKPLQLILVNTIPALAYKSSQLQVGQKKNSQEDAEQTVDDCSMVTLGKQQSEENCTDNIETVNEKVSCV

`O=C1C2C3C=CC(C3)C2C(=O)N1OCC(O)CN1CCN(c2ccccc2)CC1` (stereo not drawn) showed a Ki [1] of 336 nM, a Ki [2] of 370 nM and a Ki [3] of 38500 nM.
